Numbering of substitutions follows the chain as printed.

In one series the target is T1, UGT1A8 (Homo sapiens, UniProt Q9HAW9).
T1 sequence (Q9HAW9 26-530): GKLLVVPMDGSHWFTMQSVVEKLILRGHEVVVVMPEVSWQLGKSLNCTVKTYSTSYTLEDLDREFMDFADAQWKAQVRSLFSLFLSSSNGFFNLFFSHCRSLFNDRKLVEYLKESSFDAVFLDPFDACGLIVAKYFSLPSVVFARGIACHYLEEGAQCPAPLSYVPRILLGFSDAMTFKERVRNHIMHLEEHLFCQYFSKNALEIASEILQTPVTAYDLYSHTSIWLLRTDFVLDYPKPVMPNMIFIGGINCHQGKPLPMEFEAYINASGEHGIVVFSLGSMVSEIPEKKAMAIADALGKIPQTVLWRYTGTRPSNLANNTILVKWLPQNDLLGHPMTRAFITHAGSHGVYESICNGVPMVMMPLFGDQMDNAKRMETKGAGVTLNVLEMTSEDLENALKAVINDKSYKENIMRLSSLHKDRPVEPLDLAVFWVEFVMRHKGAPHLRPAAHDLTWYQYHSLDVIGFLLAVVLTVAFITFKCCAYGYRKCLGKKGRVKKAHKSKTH
Description: SAHA glucuronidation, wild-type UGT1A8. The class given is in vitro ADME.

In series [1] the target is T2, UGT1A8*2 (UGT1A8p.Ala173Gly) (Homo sapiens, UniProt Q9HAW9, A173G).
T2 sequence (Q9HAW9 26-530 A173G): T1 sequence (Q9HAW9 26-530) with A148G
Nature of the series: SAHA glucuronidation, UGT1A8*2 variant cell homogenate. The class given is in vitro ADME.

A further series has as its target T3, UGT1A1 (Homo sapiens, UniProt P22309).
T3 sequence (P22309 26-533): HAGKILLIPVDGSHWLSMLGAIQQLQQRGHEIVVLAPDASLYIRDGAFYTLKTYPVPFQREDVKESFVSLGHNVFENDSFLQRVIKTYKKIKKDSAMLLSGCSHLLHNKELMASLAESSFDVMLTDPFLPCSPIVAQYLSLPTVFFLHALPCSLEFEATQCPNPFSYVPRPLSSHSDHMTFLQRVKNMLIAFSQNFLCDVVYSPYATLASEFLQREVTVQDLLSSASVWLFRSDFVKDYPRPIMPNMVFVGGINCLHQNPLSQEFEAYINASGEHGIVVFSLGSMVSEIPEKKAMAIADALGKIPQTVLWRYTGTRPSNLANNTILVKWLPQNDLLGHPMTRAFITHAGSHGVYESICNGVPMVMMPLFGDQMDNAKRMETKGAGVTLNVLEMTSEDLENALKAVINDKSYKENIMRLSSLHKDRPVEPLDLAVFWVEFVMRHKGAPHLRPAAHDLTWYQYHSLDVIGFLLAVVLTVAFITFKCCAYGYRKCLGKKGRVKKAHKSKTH
Description: SAHA glucuronidation screen, UGT1A1-overexpressing cell homogenate. The class given is in vitro ADME.

The next series addresses T4, UGT1A5 (Homo sapiens, UniProt P35504).
T4 sequence (P35504 29-534): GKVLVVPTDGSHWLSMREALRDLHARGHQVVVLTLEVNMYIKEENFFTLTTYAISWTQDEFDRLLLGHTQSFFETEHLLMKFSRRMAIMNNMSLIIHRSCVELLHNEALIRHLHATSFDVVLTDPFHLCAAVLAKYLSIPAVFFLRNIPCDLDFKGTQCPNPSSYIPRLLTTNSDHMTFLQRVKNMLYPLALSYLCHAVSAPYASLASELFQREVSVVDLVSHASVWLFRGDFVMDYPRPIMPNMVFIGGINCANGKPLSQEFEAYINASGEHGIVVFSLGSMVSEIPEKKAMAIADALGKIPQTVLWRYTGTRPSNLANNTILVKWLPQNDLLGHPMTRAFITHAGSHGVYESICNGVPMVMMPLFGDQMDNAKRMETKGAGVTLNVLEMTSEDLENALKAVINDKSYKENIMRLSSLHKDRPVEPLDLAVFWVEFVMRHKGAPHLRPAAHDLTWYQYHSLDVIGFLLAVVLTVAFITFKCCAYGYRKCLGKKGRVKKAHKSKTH
Nature of the series: SAHA glucuronidation screen, UGT1A5-overexpressing cell homogenate. Particulars: 400 μg UGT-overexpressing cell homogenate, 1-h incubation. Type of series: in vitro ADME.

The target in a further series is T5, UGT2B10 (Homo sapiens, UniProt P36537).
T5 sequence (P36537 24-528): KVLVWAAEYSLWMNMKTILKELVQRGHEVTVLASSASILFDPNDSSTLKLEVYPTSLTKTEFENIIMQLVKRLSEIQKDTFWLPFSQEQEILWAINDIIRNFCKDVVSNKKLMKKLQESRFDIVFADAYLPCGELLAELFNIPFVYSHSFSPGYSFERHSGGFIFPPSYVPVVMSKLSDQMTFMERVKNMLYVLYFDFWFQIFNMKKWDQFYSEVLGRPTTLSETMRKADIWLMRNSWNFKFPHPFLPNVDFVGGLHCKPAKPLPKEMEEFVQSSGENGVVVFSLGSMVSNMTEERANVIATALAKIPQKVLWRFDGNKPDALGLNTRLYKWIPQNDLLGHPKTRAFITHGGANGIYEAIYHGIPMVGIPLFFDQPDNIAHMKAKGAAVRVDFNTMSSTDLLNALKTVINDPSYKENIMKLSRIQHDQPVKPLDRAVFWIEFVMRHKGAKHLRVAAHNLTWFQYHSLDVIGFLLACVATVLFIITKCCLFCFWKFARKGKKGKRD
Description: SAHA glucuronidation screen, UGT2B10-overexpressing cell homogenate. Particulars: 400 μg UGT-overexpressing cell homogenate, 1-h incubation. The class given is in vitro ADME.

The nature of the next series: in vitro. Particulars: human, pH 7.5.

Take `O=C(CCCCCCC(=O)Nc1ccccc1)NO` [SAHA, Suberoylanilide hydroxamic acid]: the “glucuronidation against SAHA (screen)” value at UGT1A8 (400 μg UGT-overexpressing cell homogenate, 1-h incubation) was “high levels of glucuronidation”. In addition, the Km at 1 h was 1900 ± 100 µM at UGT1A8 (human, pH 7.5); 3000 ± 700 µM in series [1] (human, UGT1A8*2 variant-overexpressing cell homogenate, pH 7.5); above 8000 µM at UGT1A1 (human, UGT1A1-overexpressing cell homogenate, pH 7.5). The “decrease in glucuronidation activity against SAHA compared with wild-type UGT1A8” value in series [1] (UGT1A8p.Ala173Gly variant, P < 0.005) worked out at 3 fold. Further, the “glucuronidation against SAHA” value at UGT1A1 (in vitro, UGT-overexpressing cell homogenate) is recorded as “detectable levels of glucuronidation”. Besides, the “glucuronidation activity against SAHA (screen)” value on UGT1A5 and on UGT2B10 was “No detectable glucuronidation activity” in each case. In addition, the Km in the series “in vitro” (human liver microsomes from UGT2B17 (*1/*1) subjects) was 1200 µM; in “in vitro” (human liver microsomes from UGT2B17 (*2/*2) subjects), 2100 µM.

The term Km denotes the substrate concentration at which the rate is half of its maximum.

For the origin of these results see PMC2694132 (Cancer research, 2009).
